How the values were obtained:
[1] = biological target: T1, C-C chemokine receptor type 5 (Homo sapiens, UniProt P51681); experiment: Antagonist activity at CCR5 expressed in CHO cells assessed as inhibition of RANTES-stimulated GTPgammaS binding at 300 nM by scintillation proximity assay
Target sequence in this assay (P51681 whole entry, looked up): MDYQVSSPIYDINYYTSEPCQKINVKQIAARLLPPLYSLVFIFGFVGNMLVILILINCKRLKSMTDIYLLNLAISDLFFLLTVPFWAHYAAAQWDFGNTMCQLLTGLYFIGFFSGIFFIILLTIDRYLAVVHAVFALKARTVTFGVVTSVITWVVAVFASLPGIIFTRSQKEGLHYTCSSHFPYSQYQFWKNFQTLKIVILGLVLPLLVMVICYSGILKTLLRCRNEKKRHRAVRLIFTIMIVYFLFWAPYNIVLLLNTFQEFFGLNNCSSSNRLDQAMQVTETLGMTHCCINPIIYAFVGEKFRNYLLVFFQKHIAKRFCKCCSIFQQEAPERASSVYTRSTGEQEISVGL

[2] = biological target: T1, C-C chemokine receptor type 5; experiment: Antagonist activity at CCR5 expressed in CHO cells assessed as inhibition of RANTES-stimulated GTPgammaS binding at 30 nM by scintillation proximity assay
Target sequence in this assay (P51681 whole entry, looked up): as above

[3] = biological target: T1, C-C chemokine receptor type 5; experiment: Antagonist activity at CCR5 expressed in CHO cells assessed as inhibition of RANTES-stimulated GTPgammaS binding by scintillation proximity assay; assay type: functional, cell-based
Target sequence in this assay (P51681 whole entry): as the sequence (P51681 whole entry, looked up) above

Row | Compound | inhibition [1] [%] | inhibition [2] [%] | IC50 [3] [µM]
1 | CC1(NC(=O)Cc2ccc(Cl)cc2)CCN(CC[C@H](NC(=O)C2CCCCC2)c2cccc(F)c2)CC1 | 91 | 28 | 
2 | COc1ccc(C(=O)NC2(C)CCN(CC[C@H](NC(=O)C3CCCCC3)c3cccc(F)c3)CC2)cc1 | 33 | 9 | 
3 | CC1(NC(=O)C2CCCCC2)CCN(CC[C@H](NC(=O)C2CCCCC2)c2cccc(F)c2)CC1 | 29 | 6 | 
4 | COC(=O)C1(Cc2ccccc2)CCN(CC[C@H](NC(=O)C2CCC2)c2ccc(C(F)(F)F)cc2)CC1 |  |  | 10
5 | O=C(N[C@@H](CCN1CCC(CO)(Cc2ccccc2)CC1)c1ccc(C(F)(F)F)cc1)C1CCC1 |  |  | > 10
6 | CC(=O)N(c1ccc(N2CCN(CC[C@H](NC(=O)C3CCCCC3)c3ccc(C(F)(F)F)cc3)CC2)cc1)C(C)C |  |  | > 10
7 | Cc1nnc(C(C)C)n1[C@H]1C[C@H]2CC[C@@H](C1)N2CC[C@H](NC(=O)COc1ccccc1)c1ccc(C(F)(F)F)cc1 |  |  | 0.253
8 | CC(C)N(Cc1ccccc1)c1ccc(N2CCN(CC[C@H](NC(=O)C3CCCCC3)c3ccc(C(F)(F)F)cc3)CC2)cc1 |  |  | > 10
9 | COC(=O)C1(Cc2ccccc2)CCN(CC[C@H](NC(=O)C2CCC2)c2cccc3ccccc23)CC1 |  |  | > 10
10 | CC1(NC(=O)c2ccc(C(F)(F)F)cc2)CCN(CC[C@H](NC(=O)C2CCCCC2)c2cccc(F)c2)CC1 | 7 | 3 | 
11 | CC1(NC(=O)CC23CC4CC(CC(C4)C2)C3)CCN(CC[C@H](NC(=O)C2CCCCC2)c2cccc(F)c2)CC1 | 46 | 21 | 
12 | CC1(NC(=O)c2cccnc2)CCN(CC[C@H](NC(=O)C2CCCCC2)c2cccc(F)c2)CC1 | 44 | 35 | 
13 | Cc1nc2cccnc2n1[C@H]1C[C@H]2CC[C@@H](C1)N2CC[C@H](NC(=O)c1ccc(F)cc1)c1cccc2ccccc12 |  |  | 10
14 | CC1(NC(=O)Cc2ccc(Cl)c(Cl)c2)CCN(CC[C@H](NC(=O)C2CCCCC2)c2cccc(F)c2)CC1 | 97 | 36 | 
15 | CC1(NC(=O)Cc2ccc(F)cc2)CCN(CC[C@H](NC(=O)C2CCCCC2)c2cccc(F)c2)CC1 | 95 | 31 | 

From ChEMBL document CHEMBL1177845, “Efficient synthesis and identification of novel propane-1,3-diamino bridged CCR5 antagonists with variation on the basic center carrier” (Eur J Med Chem, 2010)
